Substitutions are numbered along the chain they refer to. Names and notes keep the numbering of the source. Blank lines part the entries; values can stand above or below the molecule they belong to. Where no end group is shown, it is not given here. [ ]: non-standard residue; d: D form. pT = C[C@@H](OP(=O)(O)O)[C@H](N)C(=O)O
How the values were obtained:
[1] = system: HuR-7 human hepatoma cell; assay: Cell survival and nucleus morphology of hepatoma cells treated with FITC-tagged NCAPG2 peptides (Opera Phenix); format: cell-based; conditions: HuR-7, FITC-tagged peptide
Excerpt: FIG. 12 illustrates NCAPG2 p The1010 (VLSpTL) and NCAPG2 The1010 (VLSTL) peptide decreased cell survival and induced mitotic defect in HuR-7 human hepatoma cell. Cell survival and nucleus morphology were detected from Opera Phenix system (PerkinElmer).

human PLK1-PBD (371-594) = target: T1, human PLK1-PBD (371-594) (Homo sapiens, UniProt P53350); assay: Fluorescence polarisation binding assay for the PBD of PLK1; conditions: FITC-labelled peptide 10 nM, protein 0 to 4 μM
T1 construct: The human PLK1-PBD (371-594) was amplified by PCR; GST (N, cleaved yes); made in house; host or cells: E. coli Rosetta2(DE3)pLysS
T1 sequence (P53350 371-594): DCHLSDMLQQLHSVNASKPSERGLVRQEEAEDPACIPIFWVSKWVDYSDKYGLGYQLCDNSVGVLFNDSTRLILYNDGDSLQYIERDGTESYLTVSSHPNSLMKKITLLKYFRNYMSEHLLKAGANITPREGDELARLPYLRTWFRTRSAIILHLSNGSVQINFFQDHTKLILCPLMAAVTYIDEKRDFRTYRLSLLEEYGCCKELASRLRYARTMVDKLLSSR
Description: The human PLK1-PBD (371-594) was amplified by PCR and cloned into the pGEX6p-1 vector using the EcoRI and XhoI restriction enzyme sites. The protein was overexpressed in E. coli Rosetta2(DE3)pLysS cells (Novagen). The cells were grown at 37° C. in 3 L of Terrific Broth medium to an OD600 of 0.6, and recombinant protein expression was induced with 0.1 mM isopropyl β-D-thiogalactopyranoside (IPTG) at 20° C. The cells were further grown at 20° C. for 20 hr after IPTG induction. The purification methods were similar to methods that have been previously reported (Cheng, K. Y., et al. The crystal structure of the human polo-like kinase-1 polo box domain and its phospho-peptide complex. EMBO J 22, 5757-68 (2003)). Briefly, the cell pellet was resuspended in ice-cold HBS buffer (10 mM HEPES pH 7.5, 200 mM NaCl, 3.4 mM EDTA, 0.01% (v/v) 1-thioglycerol) and homogenized by sonication. After sonication, the cell debris was centrifuged and supernatant was applied to GST Sepharose resin (GE Healthcare). After extensive washing with HBS buffer, protein was eluted with HBS buffer supplemented with 20 mM reduced glutathione. PreScission protease (GE Healthcare) was added to eluted protein in order to remove the fused GST and the cleavage product was diluted and re-passed through GST Sepharose column. The flow through was collected and applied to Superdex 75 prep grade column (GE Healthcare) equilibrated with HBS buffer. The purified protein was concentrated to 6 mg/ml and used for fluorescence polarization binding assay or crystal screening.
For the fluorescence polarisation binding assay, FITC-labelled 1010pT (GVLSpTLI) or 1010T (GVLSTLI) (SEQ ID NO: 8) peptide was mixed with purified PBD and incubated in a buffer containing 10 mM HEPES (pH7.5), 50 mM NaCl, 1 mM EDTA, 1 mM DTT, and 0.0025% (v/v) Tween 20. The final protein concentrations ranged from 0 to 4 μM, and the final peptide concentration was 10 nM. Fluorescence polarisation was analysed 30 min after mixing the peptide and proteins in a 96-well plate using a VERSAmax microplate reader (Molecular Devices). Binding curves were fitted using GraphPad Prism software (GraphPad Software).
The human PLK1-PBD (371-594), PLK2-PBD (451-685) and PLK3-PBD (412-646) genes were cloned into pGEX6p-1 vector using EcoRI/XhoI restriction sites. […] The purified PLK-PBD proteins were concentrated and used for the fluorescence polarization binding assay.
For the fluorescence polarization binding assay, each fluorescein isothiocyanate (FITC)-labeled 1010pT (GVLSpTLI), 1010T (GVLSTLI), 1010E (GVLSELI), or 1010D (GVLSDLI) peptide was mixed with purified PLK1, PLK2 or PLK3 and incubated in a buffer containing 10 mM HEPES (pH 7.5), 50 mM NaCl, 1 mM EDTA, 1 mM DTT and 0.0025% (v/v) Tween 20. […]

PLK1 = target: T2, PLK1 (Homo sapiens, UniProt P53350); assay: Pull down assay / immunoprecipitation of Flag-tagged NCAPG2 mutants with GST-tagged PLK1; format: binding
T2 construct: expressed in transfected cells
T2 sequence (P53350 whole entry): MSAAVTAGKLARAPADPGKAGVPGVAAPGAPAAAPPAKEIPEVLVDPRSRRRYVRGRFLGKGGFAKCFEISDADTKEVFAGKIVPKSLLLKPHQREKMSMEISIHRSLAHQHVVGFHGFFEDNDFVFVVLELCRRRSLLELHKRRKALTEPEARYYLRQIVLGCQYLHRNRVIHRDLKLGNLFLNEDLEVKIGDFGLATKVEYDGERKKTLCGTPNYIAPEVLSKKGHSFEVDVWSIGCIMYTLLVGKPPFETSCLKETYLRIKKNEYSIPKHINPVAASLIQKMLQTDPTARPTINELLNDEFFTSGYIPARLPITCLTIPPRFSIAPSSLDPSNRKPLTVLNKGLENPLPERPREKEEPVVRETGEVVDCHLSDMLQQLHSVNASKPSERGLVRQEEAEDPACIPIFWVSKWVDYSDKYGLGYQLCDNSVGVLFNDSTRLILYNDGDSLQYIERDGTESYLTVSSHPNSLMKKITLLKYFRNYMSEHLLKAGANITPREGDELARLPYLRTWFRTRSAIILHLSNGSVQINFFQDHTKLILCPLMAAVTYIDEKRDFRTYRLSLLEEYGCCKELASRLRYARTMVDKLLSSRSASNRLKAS
Excerpt: The NCAPG2 expression vectors were constructed using pcDNA3.1, pCMV-3FLAG-1, and pLL3.7 vectors with KpnI/XhoI, EcoRV/XhoI, and SmaI/XhoI restriction enzyme sites, respectively. To produce siRNA-resistant NCAPG2 mutants (Lenti-NCAPG2^R), the mutants (forward primer: 5′ GAAGACTACCTGAAGCTTCACAGA GTGATT TATCAGCAAATTATCCAGACCTACCTG-3′ (SEQ ID NO: 3), reverse primer: 5′-CAGGTAGGTCTGGATAATTTGCTGATAAATCACTCTGTGAAGCTTCAGGTAGTCTTCTTC-3′ (SEQ ID NO: 4)) were generated using a QuikChange Site-Directed Mutagenesis Kit (Stratagene). […]
For the detection of proteins using the immunoblottings, subjects were protein complexes from immunoprecipitation or whole cell lysates harvested from indicated conditions. […] Protein concentration was determined using BCA™ protein assay kit (Pierce, Rockford, USA). […] Protein expressions detected chemiluminescent signals activated by SuperSignal West Pico Chemiluminescent Substrate (Pierce Rockford, Ill., USA) reacted with horse radish peroxidase tagged secondary antibodies (Jackson ImmunoResearch Laboratories, Inc., West Grove, USA).

Molecule: VLSpTL (VLS[pT]L; listed as Homo sapiens) [NG2 p The1010, phosphorylated 5-mer NCAPG2 peptide comprising residue 1010]
- effect on mitosis [1]: induced abnormal mitosis
- survival rate of human liver cancer cell [1]: lowered survival rate

- binding to PLK1-PBD (in words) (human PLK1-PBD (371-594)): did not bind
Molecule: GVLSDLI [1010D, 7-mer peptide with aspartate as phosphor-Thr mimetic]

- binding to PLK1-PBD (in words) (human PLK1-PBD (371-594)): did not bind
Molecule: GVLSELI [1010E, 7-mer peptide with glutamate as phosphor-Thr mimetic]

Molecule: VLSTL (listed as Homo sapiens) [NG2 The1010]
- effect on mitosis [1]: induced abnormal mitosis
- survival rate of human liver cancer cell [1]: lowered survival rate

- binding of NCAPG2 mutant to PLK1 (PLK1): inhibited
B1: T1010A: NCAPG2 mutant which substituted threonine with alanine at the residue number 1010 of SEQ ID NO: 7 (protein, listed as Homo sapiens)
chain: MEKRETFVQAVSKELVGEFLQFVQLDKEASDPFSLNELLDELSRKQKEELWQRLKNLLTDVLLESPVDGWQVVEAQGEDNMETEHGSKMRKSIEIIYAITSVILASVSVINESENYEALLECVIILNGILYALPESERKLQSSIQDLCVTWWEKGLPAKEDTGKTAFVMLLRRSLETKTGADVCRLWRIHQALYCFDYDLEESGEIKDMLLECFININYIKKEEGRRFLSCLFNWNINFIKMIHGTIKNQLQGLQKSLMVYIAEIYFRAWKKASGKILEAIENDCIQDFMFHGIHLPRRSPVHSKVREVLSYFHHQKKVRQGVEEMLYRLYKPILWRGLKARNSEVRSNAALLFVEAFPIRDPNLHAIEMDSEIQKQFEELYSLLEDPYPMVRSTGILGVCKITSKYWEMMPPTILIDLLKKVTGELAFDTSSADVRCSVFKCLPMILDNKLSHPLLEQLLPALRYSLHDNSEKVRVAFVDMLLKIKAVRAAKFWKICPMEHILVRLETDSRPVSRRLVSLIFNSFLPVNQPEEVWCERCVTLVQMNHAAARRFYQYAHEHTACTNIAKLIHVIRHCLNACIQRAVREPPEDEEEEDGREKENVTVLDKTLSVNDVACMAGLLEIIVILWKSIDRSMENNKEAKLYTINKFASVLPEYLKVFKDDRCKIPLFMLMSFMPASAVPPFSCGVISTLRSREEGAVDKSYCTLLDCLCSWGQVGHILELVDNWLPTEHAQAKSNTASKGRVQIHDTRPVKPELALVYIEYLLTHPKNRECLLSAPRKKLNHLLKALETSKADLESLLQTPGGKPRGFSEAAAPRAFGLHCRLSIHLQHKFCSEGKVYLSMLEDTGFWLESKILSFIQDQEEDYLKLHRVIYQQIIQTYLTVCKDVVMVGLGDHQFQMQLLQRSLGIMQTVKGFFYVSLLLDILKEITGSSLIQKTDSDEEVAMLLDTVQKVFQKMLECIARSFRKQPEEGLRLLYSVQRPLHEFITAVQSRHTDTPVHRGVLSALIAGPVVEISHQLRKVSDVEELTPPEHLSDLPPFSRCLIGIIIKSSNVVRSFLDELKACVASNDIEGIVCLTAAVHIILVINAGKHKSSKVREVAATVHRKLKTFMEITLEEDSIERFLYESSSRTLGELLNS

- binding of NCAPG2 mutant to PLK1 (PLK1): inhibited
B2: T805A: NCAPG2 mutant which substituted threonine with alanine at the residue number 805 of SEQ ID NO: 7 (protein, listed as Homo sapiens)
chain: B1 chain with T805A, A1010T

Source: patent US9562084B2, “Peptides derived from NCAPG2 and their use” (NATIONAL CANCER CENTER, priority 2014, dated 2017)
